Tests used:
[1] = test system: A549 cell line; assay: Proliferation of A549 (CellTiter Glo); type: cell-based; conditions: Homo sapiens, A549, 96 h, read-out: IC50 μM (A549 Cell Line)
Protocol: The diterpenoid compounds were tested in A549, a non-small cell lung cancer cell line harboring a K-Ras activating mutation. Briefly, A549 cells at a density of 1,000 cells/well were seeded in 96-well plates and incubated at 37° C. for 24 hours. A series of different concentrations of compound stocks (500×) were prepared by 3-fold serial dilution in DMSO. These compounds were further diluted in culture media and then added to cells so that the final DMSO concentration was not exceeding 0.25%. After 96 hours of incubation, 50 μL of CellTiter Glo reagent (Promega) was added to each well and luminescence was measured after 10 minutes using EnVision (PerkinElmer). Luminescence from cells treated with DMSO alone was set as Max and % of inhibition was calculated as follows: Inhibition %=(Max-Sample value)/Max×100. Data was analyzed using XL-fit software (ID Business Solutions Ltd.) and IC50, relative IC50, and % of top inhibition was calculated. Some of the compounds in this disclosure were very potent in blocking proliferation of A549 lung cancer cells at low nM range. In addition, potency of inhibiting A549 proliferation correlated well with its binding affinity to PKCs for this series of compounds. In other words, higher affinity binders had stronger inhibitory effects on A549 proliferation. This further support the notion that activation, rather than inhibition, of certain PKC isoforms is required to block proliferation of cancer cells, some of which may harbor K-Ras mutations. This is in sharp contrast to previous literature and common belief that inhibition of PKC is necessary to block cancer cell growth (Kang, 2014, New Journal of Science, 2014:1-36). Data presented here is in agreement with recent findings that many loss-of-function but not gain-of-function mutations of PKC isoforms have been identified in many human cancers (Antal et al., 2015, Cell, 160:489-502).

[2] = target: T1, C1b domain of human PKD1 (PKCμ) (Homo sapiens, UniProt Q15139); assay: Competitive 3H-PDBu binding assay, C1b domain of PKD1 (PKCμ); conditions: 3H-PDBu competition
T1 construct: Genes encoding C1b domains of human PKCα, δ, ε, θ, and PKD1 (PKCμ) were synthesized; made in house; host or cells: E. coli BL21(DE3)
T1 sequence (Q15139 270-320 limits assumed): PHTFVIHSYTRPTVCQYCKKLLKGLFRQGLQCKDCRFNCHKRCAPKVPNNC
Protocol: (§1) Compounds described in this disclosure were tested for binding affinity to C1b domain of PKC isoforms. Compound binding affinity to C1b domain of PKC isoforms was derived from competitive binding assay using radioactive tracer ^3H-PDBu and recombinant GST-C1b or full-length of human PKC proteins based on modified procedures from Methods in Molecular Biology, vol.
(§2) Genes encoding C1b domains of human PKCα, δ, ε, θ, and PKD1 (PKCμ) were synthesized and inserted into pGEX-2TK or pGEX-4T1 vectors for expression and production of GST-C1b proteins in E. coli BL21(DE3) via IPTG induction. The target proteins were purified by glutathione sepharose 4B and followed by ion exchange chromatography if needed to achieve purity >70%. Aliquots of the purified proteins were stored at −80 degree for binding assay (storage buffer: 20 mM Tris pH 8.0, 200 mM NaCl, 10% glycerol, 1 mM DTT).
(§3) The plate was incubated at 37° C. on a shaker at 300 rpm for 10 minutes and then put on ice for 20 minutes. […] The bottom of the filter plate was sealed and 50 μL of MicroScint-20 (PerkinElmer) cocktail was added to each well. ^3H-PDBu trapped in each well was counted using PerkinElmer MicroBeta2 Reader. Data were analyzed using GraphPad Prism5 with the model “log(inhibitor) vs. response-variable slope” to fit the IC50, and then IC50 was transformed to Ki using Cheng-Prusoff equation: Ki=IC50/(1+added radio ligand/Kd). Kd is the binding affinity of each protein preparation to ^3H-PDBu, determined experimentally.

[3] = target: T2, C1b domain of human PKCδ (Homo sapiens, UniProt Q05655); assay: biochemical; type: binding; conditions: 3H-PDBu competition
T2 construct: Genes encoding C1b domains of human PKCα, δ, ε, θ, and PKD1 (PKCμ) were synthesized; made in house; host or cells: E. coli BL21(DE3)
T2 sequence (Q05655 230-280 limits assumed): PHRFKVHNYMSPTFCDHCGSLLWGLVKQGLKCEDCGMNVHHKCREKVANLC
Protocol: as §1, §2, §3

[4] = test system: CT26 tumors; assay: CT26 tumor after single dose intratumoral treatment, H&E stain and CD31 IHC; type: in vivo, mouse; conditions: 24h, all dose levels (47.2 μg, 141.6 μg, and 472 μg)
Protocol: Method. Each 6-8 weeks old female Balb/c mouse was implanted with 3×10^5 CT26 mouse colon cancer cells in one flank for tumor development. When the average tumor volume reached 95 mm^3, 21 mice were randomized into different groups and were treated via a single IT injection (20 uL) according to the group assignment (different dose and treatment duration) in the table below. Tumors were harvested at 1h, 7h, or 24h post IT injection, and then fixed and processed for paraffin embedding.
Paraffin blocks were sectioned into […] sections using Leica RM2235 microtome. One section was stained for Hematoxylin-Eosin (H&E) using Leica ST5020-CV5030 stainer integrated workstation according to the Manufacture's procedure. Photos were taken using Nikon DS-Ri2. Another section was processed for IHC staining with the CD31 antibody (BD, Cat #550274) at 1:10 dilution. The stained slides were scanned using Leica Aperio VERSA 8 and the images were analyzed using HALO image analysis software system (Indica Labs).

SMILES | IC50 [1] | Ki [2] | Ki [3] | reduction of CD31 density, on average, compared with the vehicle control [4]
CC1=C[C@H]2[C@@]3(O)[C@H](C)C[C@]4(OC(=O)CC5CC6(CNC6)C5)[C@H]([C@@H]3C=C(CO)C[C@]2(O)C1=O)C4(C)C | > 30 µM | 10 to 30 nM |  | 
CC1=C[C@H]2[C@@]3(O)[C@H](C)C[C@]4(OC(=O)[C@H](N)CCc5ccc(C(F)(F)F)cc5)[C@H]([C@@H]3C=C(CO)C[C@]2(O)C1=O)C4(C)C | 0.2 to 0.6 µM | 10 to 30 nM |  | 
CC1=C[C@H]2[C@@]3(O)[C@H](C)C[C@]4(OC(=O)CCCCCCCCCCCC(=O)O)[C@H]([C@@H]3C=C(CO)C[C@]2(O)C1=O)C4(C)C | 10 to 30 µM | 60 to 100 nM |  | 
CC1=C[C@H]2[C@@]3(O)[C@H](C)C[C@]4(OC(=O)[C@H](N)Cc5c[nH]c6ccccc56)[C@H]([C@@H]3C=C(CO)C[C@]2(O)C1=O)C4(C)C | 10 to 30 µM | 10 to 30 nM |  | 
CSC[C@H](N)C(=O)O[C@@]12C[C@@H](C)[C@@]3(O)[C@@H](C=C(CO)C[C@]4(O)C(=O)C(C)=C[C@@H]34)[C@@H]1C2(C)C | 5 to 10 µM | 60 to 100 nM |  | 
CC1=C[C@H]2[C@@]3(O)[C@H](C)C[C@]4(OC(=O)[C@H](N)CCCCCCc5ccc(C(F)F)cc5)[C@H]([C@@H]3C=C(CO)C[C@]2(O)C1=O)C4(C)C | 0.1 to 0.2 µM | 10 to 30 nM | 10 to 30 nM | 
CC1=C[C@H]2[C@@]3(O)[C@H](C)C[C@]4(OC(=O)[C@H](N)CC5CCCCC5)[C@H]([C@@H]3C=C(CO)C[C@]2(O)C1=O)C4(C)C | 0.2 to 0.6 µM |  | 10 to 30 nM | 
CN[C@@H](CC1CCCCC1)C(=O)O[C@@]12C[C@@H](C)[C@@]3(O)[C@@H](C=C(CO)C[C@]4(O)C(=O)C(C)=C[C@@H]34)[C@@H]1C2(C)C | 0.2 to 0.6 µM |  | 10 to 30 nM | 
CC1=C[C@H]2[C@@]3(O)[C@H](C)C[C@]4(OC(=O)[C@H](N)CCCCCCc5ccccc5)[C@H]([C@@H]3C=C(COC(=O)[C@@H](N)C(C)C)C[C@]2(O)C1=O)C4(C)C |  |  |  | > 50%
CC1=C[C@H]2[C@@]3(O)[C@H](C)C[C@]4(OC(=O)[C@H](N)CCCc5ccccc5)[C@H]([C@@H]3C=C(CO)C[C@]2(O)C1=O)C4(C)C | 0.2 to 0.6 µM | 10 to 30 nM |  | 

— US20240197666A1, “DITERPENOID COMPOUNDS THAT ACT ON PROTEIN KINASE C (PKC)” (K-Gen Therapeutics, Inc., priority 2021, published 2024)
